Results published in PubChem BioAssay (NCI).
Where “and” joins values, the source holds several entries; their conditions need not be identical. Equal entries are not always repeated.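 How tested: cells in 96-well plates exposed to compound for 48 hours at five concentrations. GI50: concentration for 50% inhibition of growth. TGI marks complete inhibition of growth.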

Columns and labels:
Experiment in all cases: DTP human tumour cell line panel, 48 h
[1] = tested on: SK-MEL-2 melanoma
[2] = tested on: A498 renal
[3] = tested on: LOX IMVI melanoma
[4] = tested on: RPMI-8226 leukemia
[5] = tested on: IGROV1 ovarian
[6] = tested on: SN12C renal
[7] = tested on: OVCAR-8 ovarian
[8] = tested on: HCT-15 colon
[9] = tested on: NCI-H460 lung
[10] = tested on: NCI/ADR-RES ovarian

Row | SMILES | GI50 [1] | TGI [1] | GI50 [2] | TGI [2] | GI50 [3] | TGI [3] | GI50 [4] | TGI [4] | GI50 [5] | TGI [5] | GI50 [6] | TGI [6] | GI50 [7] | TGI [7] | GI50 [8] | TGI [8] | GI50 [9] | TGI [9] | GI50 [10] | TGI [10]
1 | COc1cc(C2Cc3ncccc3-c3[nH]c(=O)c4cccnc4c32)cc(OC)c1OC (stereo not given) | 0.485 µM | > 100 µM | 0.363 µM | 13.5 µM | 0.452 µM | > 100 µM | 0.68 µM | > 100 µM | 0.46 µM | > 100 µM | 1.19 µM | > 100 µM | 0.97 µM | > 100 µM | 0.809 µM | > 100 µM | 0.429 µM | > 100 µM | 2.16 µM | > 100 µM
2 | O=C(Cc1ccc(/C=C/C(=O)c2ncc[nH]2)cc1)Nc1ccc(F)cc1 | 7.47 µM | 19 µM | 8.92 µM | 22.9 µM | 1.07 µM | 4.72 µM | 1.27 µM | 7.46 µM | 2.66 µM | 13.9 µM | 2.93 µM | 27.1 µM | 5.08 µM | > 33.3 µM | 1.15 µM | 7.37 µM | 1.72 µM | 14.6 µM | 7.18 µM | > 33.3 µM
3 | Cc1nc2ccc(Nc3nc(Cl)nc(N4CCOCC4)n3)cc2n1Cc1ccccc1 | 3.54 µM | 26 µM | 2.85 µM | > 100 µM |  |  | 97.2 µM | > 100 µM | 2.58 µM | 6.41 µM | 6.79 µM | 88 µM | 2.95 µM | > 100 µM | 2.94 µM | 14.1 µM | 11.9 µM | > 100 µM | 4.43 µM | > 100 µM
4 | C/C(=N\NC(=S)N1CCCCC1)c1ccccn1 | 0.702 µM | 3.8 µM | 0.228 µM | 2.32 µM | < 0.0106 µM | 9.03 µM | 0.016 µM | 0.849 µM | < 0.01 µM | 5.79 µM | 0.29 µM | 14.3 µM | < 0.01 µM | 2.42 µM | < 0.0169 µM | 12.6 µM | < 0.0151 µM | 1.5 µM | < 0.01 µM | 6.77 µM
5 | c1cc(NNc2cccc(-c3nn[nH]n3)c2)cc(-c2nn[nH]n2)c1 |  | > 100 µM |  | > 100 µM |  | > 100 µM |  | > 100 µM |  | > 100 µM |  | > 100 µM |  | > 100 µM |  | > 100 µM |  | > 100 µM |  | > 100 µM
6 | Cc1cc2nc3c4cc(O)ccc4n(CCN(C)C)c3nc2cc1C | 1.65 µM | 3.69 µM | 0.403 µM | 2.04 µM |  |  | 0.417 µM | 2.63 µM | 0.474 µM | 2.89 µM | 0.586 µM | 12.4 µM | 0.494 µM | 4.73 µM | 0.611 µM | 4.1 µM | 0.468 µM | 1.99 µM | 0.499 µM | 4.2 µM
7 | CCN1C/C(=C\c2cc(OC)c(OC)cc2OC)C(=O)/C(=C/c2cc(OC)c(OC)cc2OC)C1 | 2.29 µM | 7.87 µM | 2.56 µM | 7.81 µM | 2.25 µM | 5.55 µM | 2.35 µM | 6.78 µM | 3.06 µM | 11.2 µM | 3.11 µM | 9.14 µM | 3.43 µM | > 100 µM | 2.96 µM | 11.3 µM |  |  | 3.12 µM | > 100 µM
8 | COc1ccc2c(c1)/C(=C\c1c(-c3cc(OC)ccc3OC)nc3sc(C)cn13)C(=O)N2C | 17.3 µM | 38.5 µM | 27.2 µM | 98.7 µM | 23.9 µM | 83.5 µM | 9.13 µM | 58.4 µM | 19.4 µM | > 100 µM | 24.7 µM | > 100 µM | 28.2 µM | > 100 µM | 33.9 µM | > 100 µM | 24.9 µM | 93.9 µM | 27.4 µM | > 100 µM
9 | CCN(CCCN(C)C)Cc1cc(I)cc(C)c1O | 19.4 µM | 37.4 µM | 20.4 µM | 38.6 µM | 18.3 µM | 34.6 µM | 15.1 µM | 34 µM | 19.8 µM | 45.4 µM | 59.9 µM | > 100 µM | 34.2 µM | > 100 µM | 21.5 µM | 49.4 µM | 16.4 µM | 38 µM | 27 µM | > 100 µM
10 | COc1cc(/C=C\c2cc(OC)c(OC)c(OC)c2)cc(N/C=C\C(=O)c2ccc(OC(F)(F)F)cc2)c1OC |  |  | 1.83 µM | 7.59 µM | 5.95 µM | > 100 µM | 3.66 µM | 19.6 µM | 7.06 µM | > 100 µM | 4.85 µM | > 100 µM | 4.59 µM | > 100 µM | 3.42 µM | > 100 µM | 3.34 µM | 36.4 µM | 3.04 µM | 9.85 µM
11 | O=C(Oc1cccc2cccnc12)c1cc2c(cc1Cl)SC(N(c1ccc(F)cc1)S(=O)(=O)c1ccc(Br)s1)=NS2(=O)=O | 34.3 µM | > 100 µM | 34.9 µM | > 100 µM | 15.8 µM | 64.2 µM | 28.6 µM | 96.3 µM | 60.3 µM | > 100 µM | 24.9 µM | > 100 µM |  |  | 25.9 µM | > 100 µM | 29.1 µM | > 100 µM | 18.2 µM | 66.4 µM
12 | CC(C)(Br)C(=O)N1CCN(C(c2ccccc2)c2ccccc2)CC1 |  | > 100 µM |  | > 100 µM |  | > 100 µM |  |  |  | > 100 µM |  | > 100 µM |  | > 100 µM |  | > 100 µM |  | > 100 µM |  | > 100 µM
13 | COc1cc2c(cc1OC)[C@@H](Nc1ccc(C#N)cc1)C1COC(=O)[C@@H]1C2c1cc(OC)c(O)c(OC)c1 (stereo not given in full) | 3.7 µM and 1.49 µM | 23 µM and 5.86 µM |  | 0.794 µM |  |  |  | 0.225 µM and 0.65 µM | 7.06 µM and 5.07 µM | 95 µM and > 100 µM |  | 2.28 µM | 0.472 µM and 1.55 µM |  | 0.91 µM and 1.39 µM |  |  | 1.05 µM and 1.72 µM |  | > 100 µM
